Assay results reported in publication PMC3392958, “Assay Format as a Critical Success Factor for Identification of Novel Inhibitor Chemotypes of Tissue-Nonspecific Alkaline Phosphatase from High-Throughput Screening” (Molecules, 2010).
Read-outs that look alike come from different tables or passages of the source.

What was measured:
Format in all cases: biochemical
TNAP = molecular target: T1, TNAP (Homo sapiens, UniProt P05186); assay: TNAP luminescent assay (CDP-star substrate, 100 mM DEA); conditions: for improvement in TNAP potency over parent compound: MLS-0091995 vs CID-646303, MLS-0111547 vs MLS-0004120
T1 construct: made in house; host or cells: COS-1 cells, transient expression; dialyzed serum-free conditioned medium
T1 sequence (P05186 18-501 limits assumed): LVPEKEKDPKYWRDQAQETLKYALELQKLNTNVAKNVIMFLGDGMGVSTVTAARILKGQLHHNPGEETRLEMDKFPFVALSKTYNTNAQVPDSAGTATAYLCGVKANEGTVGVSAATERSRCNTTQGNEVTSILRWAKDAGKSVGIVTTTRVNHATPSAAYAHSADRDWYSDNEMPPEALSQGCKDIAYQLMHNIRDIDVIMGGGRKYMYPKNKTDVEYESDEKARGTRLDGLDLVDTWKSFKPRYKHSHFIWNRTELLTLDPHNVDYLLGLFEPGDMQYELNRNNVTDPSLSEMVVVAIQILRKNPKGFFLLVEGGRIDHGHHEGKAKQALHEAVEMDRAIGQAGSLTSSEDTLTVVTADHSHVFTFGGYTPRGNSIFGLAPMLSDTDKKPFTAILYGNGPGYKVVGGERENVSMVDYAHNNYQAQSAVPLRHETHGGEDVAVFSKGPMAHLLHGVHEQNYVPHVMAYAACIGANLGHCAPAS
Experimental: (§1) Development of the novel luminescent TNAP assay using CDP-star substrate and detailed protocol of its application for HTS is described in more detail elsewhere. […] Briefly, the assay was 50 μM CDP-star substrate in assay buffer containing 100 mM DEA-HCl (pH 9.8), 1 mM MgCl2, and 20 μM ZnCl2. The luminescence signal was measured after a 30-min incubation at room temperature on an EnVision plate reader (PerkinElmer, Waltham, MA). […] Detailed protocols can be found in the respective AIDs, however, the final buffer conditions were 100 mM DEA, pH 9.8, 1.0 mM MgCl2, 0.02 mM ZnCl2 for both PLAP and IAP.

IAP = molecular target: T2, IAP (Homo sapiens, UniProt P09923); assay: IAP luminescent assay (CDP-star)
T2 construct: made in house; host or cells: COS-1 cells, transient expression; dialyzed serum-free conditioned medium
T2 sequence (P09923 20-503 limits assumed): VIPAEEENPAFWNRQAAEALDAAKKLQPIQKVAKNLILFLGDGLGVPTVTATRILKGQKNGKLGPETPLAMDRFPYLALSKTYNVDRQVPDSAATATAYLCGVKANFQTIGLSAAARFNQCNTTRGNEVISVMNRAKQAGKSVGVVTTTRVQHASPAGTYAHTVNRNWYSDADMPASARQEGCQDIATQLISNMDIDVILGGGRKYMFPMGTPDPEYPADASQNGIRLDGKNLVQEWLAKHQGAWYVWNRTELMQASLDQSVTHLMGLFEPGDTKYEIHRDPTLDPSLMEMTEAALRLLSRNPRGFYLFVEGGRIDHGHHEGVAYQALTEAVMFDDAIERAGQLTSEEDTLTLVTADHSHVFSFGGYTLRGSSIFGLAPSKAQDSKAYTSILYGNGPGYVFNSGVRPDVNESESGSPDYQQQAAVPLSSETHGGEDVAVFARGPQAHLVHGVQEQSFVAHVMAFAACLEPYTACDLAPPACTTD
Experimental: (§2) Selectivity of Primary Actives Against other Phosphatases: To assess the selectivity of compounds across the alkaline phosphatase family, luminescent assays were developed for human PLAP and human IAP with the same CDP-Star reagent.
as §1

human PLAP = molecular target: T3, human PLAP (Homo sapiens, UniProt P05187); assay: PLAP luminescent assay (CDP-star); conditions: catechol series
T3 construct: made in house; host or cells: COS-1 cells, transient expression; dialyzed serum-free conditioned medium
Experimental: as §2, §1

[1] = phtalimide triazole series, read-out: IC50 TNAP- Lumi
[2] = luminescence-based assay, 0.1M DEA, read-out: TNAP IC50
[3] = optimized pyrazole series, read-out: TNAP Lumi IC50

T3 sequence (P05187 23-506 limits assumed): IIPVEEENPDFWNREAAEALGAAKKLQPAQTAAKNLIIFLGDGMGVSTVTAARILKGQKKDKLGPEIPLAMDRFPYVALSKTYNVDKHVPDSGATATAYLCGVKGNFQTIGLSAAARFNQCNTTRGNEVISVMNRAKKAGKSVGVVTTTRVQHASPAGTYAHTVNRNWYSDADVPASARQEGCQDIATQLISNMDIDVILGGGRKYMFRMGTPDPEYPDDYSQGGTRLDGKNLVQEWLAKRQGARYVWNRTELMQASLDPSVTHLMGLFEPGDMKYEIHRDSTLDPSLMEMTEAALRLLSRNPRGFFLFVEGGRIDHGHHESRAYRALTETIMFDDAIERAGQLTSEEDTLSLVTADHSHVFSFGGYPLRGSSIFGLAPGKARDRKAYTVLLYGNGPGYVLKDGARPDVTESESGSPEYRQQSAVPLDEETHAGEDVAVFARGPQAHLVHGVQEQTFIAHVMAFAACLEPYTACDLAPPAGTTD

## O=C1C2C3C=CC(C3)C2C(=O)N1c1n[nH]c(CCc2ccccc2)n1 (stereo not drawn) [MLS-0091982]
TNAP; [1]
  IC50: 30600 nM

## O=C1C2CCCCC2C(=O)N1c1nc(CCc2ccccc2)n[nH]1 (stereo not drawn) [MLS-0091984]
TNAP; [1]
  IC50: > 100000 nM

## O=C1C2CC=CCC2C(=O)N1c1nnc(CCc2ccccc2)[nH]1 (stereo not drawn) [MLS-0091987]
IAP
  selectivity for IAP over TNAP: 40 fold
IAP; phtalimide triazole series, read-out: IC50 IAP-Lumi
  IC50: 0.72 µM
TNAP; [1]
  IC50: 27900 nM

## COC(=O)c1cc(-c2ccc(Cl)cc2Cl)n[nH]1 [MLS-0091995]
TNAP
  improvement in TNAP potency over parent compound: 2 fold
TNAP; [2]
  IC50: 500 nM

## O=C(c1[nH]nc2c1COc1ccccc1-2)N1CCCC1 [MLS-0111547]
TNAP
  improvement in TNAP potency over parent compound: 3 fold
TNAP; TNAP, read-out: IC50 (Figure 6, pyrazole series optimization)
  IC50: 500 nM
TNAP; [2]
  IC50: 480 nM

## COc1ccc(OC)c(S(=O)(=O)Nc2ccc3ncccc3c2)c1 [MLS-0111639]
TNAP; luminescence-based assay
  activity against TNAP in vitro: eliminates activity

## COc1ccc(OC)c(C(=O)Nc2cnc3ccccc3c2)c1 [MLS-0111666]
TNAP; luminescence-based assay
  activity against TNAP in vitro: inactive

## COc1ccc(OC)c(CNc2cnc3ccccc3c2)c1 [MLS-0111667]
TNAP; luminescence-based assay
  activity against TNAP in vitro: inactive

## NNC(=O)c1cc(-c2ccc(Cl)cc2Cl)n[nH]1 [MLS-0146145]
TNAP; [3]
  IC50: 52 nM

## CN(C)C(=O)c1cc(-c2ccc(Cl)cc2Cl)n[nH]1 [MLS-0146148]
TNAP; [3]
  IC50: 75 nM

## CC(C)NC(=O)c1cc(-c2ccc(Cl)cc2Cl)n[nH]1 [MLS-0146149]
TNAP; [3]
  IC50: 24 nM

## O=C(NCCO)c1cc(-c2ccc(Cl)cc2Cl)n[nH]1 [MLS-0146161]
TNAP; [3]
  IC50: 20 nM

## O=C(NCCO)c1cc(-c2cc(F)c(Cl)cc2Cl)n[nH]1 [MLS-0146165]
TNAP; [3]
  IC50: 42 nM

## Cc1cc(C)nc(SCC(=O)c2ccc(O)c(O)c2)n1 [MLS-0315687]
IAP; catechol series, read-out: IAP IC50
  IC50: 49.5 µM
TNAP; catechol series, read-out: TNAP IC50
  IC50: 8600 nM

## CCc1nccn1CC(=O)c1ccc(O)c(O)c1 [MLS-0315848]
Human PLAP
  selectivity as inhibitor of PLAP over IAP: over 27 fold
  selectivity as inhibitor of PLAP over TNAP: over 27 fold
Human PLAP; read-out: PLAP IC50
  IC50: 4.2 µM

## Cc1nc2ccccc2n1CC(=O)c1ccc(O)c(O)c1 [MLS-0315854]
Human PLAP
  selectivity as inhibitor of PLAP over IAP: 10 fold
  selectivity as inhibitor of PLAP over TNAP: 40 fold

## Cc1cnn(CC(=O)c2ccc(O)c(O)c2)c1 [MLS-0390945]
Human PLAP
  selectivity as inhibitor of PLAP over IAP: > 25 fold
  selectivity as inhibitor of PLAP over TNAP: more than 50 fold
